From PubChem BioAssay (NCI)
Values joined by “and” are separate entries in the source; they are usually repeats but may differ in a detail not shown here. Identical values can stand only once.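 Dose response: 5 concentrations. Exposure: 48 h. Format: 96-well plates. Endpoint: linear interpolation; highest concentration if not reached. GI50 marks 50% less growth. Definition used: TGI = concentration required for complete inhibition of growth.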

Tests used:
Assay in all cases: NCI-60 cell line screen, 48 h
BT-549 breast = tested on: BT-549 breast
CCRF-CEM leukemia = tested on: CCRF-CEM leukemia
DU-145 prostate = tested on: DU-145 prostate
HCT-15 colon = tested on: HCT-15 colon
HOP-62 NSCLC = tested on: HOP-62 NSCLC
HOP-92 NSCLC = tested on: HOP-92 NSCLC
NCI-H460 lung = tested on: NCI-H460 lung
SK-MEL-5 melanoma = tested on: SK-MEL-5 melanoma
SK-MEL-2 melanoma = tested on: SK-MEL-2 melanoma
T-47D breast = tested on: T-47D breast

## Cc1ccc(Nc2cn(COCc3ccccc3)c(=O)[nH]c2=O)cc1
BT-549 breast
  TGI: 82 µM
CCRF-CEM leukemia
  TGI: > 100 µM
DU-145 prostate
  TGI: > 100 µM
HCT-15 colon
  TGI: > 100 µM
HOP-62 NSCLC
  TGI: > 100 µM
HOP-92 NSCLC
  TGI: > 100 µM
NCI-H460 lung
  TGI: > 100 µM
SK-MEL-5 melanoma
  TGI: > 100 µM

## CC#Cc1c(C#CC)c(OC)c2c(c1OC)C(=O)c1ccccc1C2=O
CCRF-CEM leukemia
  TGI: > 100 µM
HCT-15 colon
  TGI: > 100 µM
HOP-62 NSCLC
  TGI: 45.4 µM
NCI-H460 lung
  TGI: > 100 µM
SK-MEL-2 melanoma
  TGI: > 100 µM
SK-MEL-5 melanoma
  TGI: > 100 µM

## CC(Nc1n[nH]c(=O)c2c1nnn2Cc1ccccc1)c1ccccc1 (stereo not given)
BT-549 breast
  GI50: > 100 µM and 37.5 µM
  TGI: > 100 µM
CCRF-CEM leukemia
  TGI: > 100 µM
DU-145 prostate
  TGI: > 100 µM
HCT-15 colon
  TGI: > 100 µM
HOP-62 NSCLC
  GI50: > 100 µM and 21.7 µM
  TGI: > 100 µM and 86 µM
HOP-92 NSCLC
  TGI: > 100 µM and 63.3 µM
NCI-H460 lung
  GI50: > 100 µM and 31 µM
  TGI: > 100 µM
SK-MEL-2 melanoma
  GI50: > 100 µM and 41.5 µM
  TGI: > 100 µM
SK-MEL-5 melanoma
  TGI: > 100 µM

## C=CCC1C2CCC(O[Si](C(C)C)(C(C)C)C(C)C)(C(C(=O)OC)C2)C1O (stereo not given)
CCRF-CEM leukemia
  TGI: > 100 µM
DU-145 prostate
  TGI: > 100 µM
HCT-15 colon
  TGI: > 100 µM
HOP-62 NSCLC
  TGI: > 100 µM
HOP-92 NSCLC
  TGI: > 100 µM
NCI-H460 lung
  TGI: > 100 µM
SK-MEL-2 melanoma
  TGI: > 100 µM
SK-MEL-5 melanoma
  TGI: > 100 µM
T-47D breast
  TGI: > 100 µM

## CC1(C)N=C(Oc2ccccc2)n2nccc2N1
CCRF-CEM leukemia
  TGI: > 100 µM
HCT-15 colon
  TGI: > 100 µM
HOP-62 NSCLC
  TGI: > 100 µM
HOP-92 NSCLC
  TGI: > 100 µM
NCI-H460 lung
  TGI: > 100 µM
SK-MEL-2 melanoma
  TGI: > 100 µM
SK-MEL-5 melanoma
  TGI: > 100 µM

## Cc1cc(C#N)c(Nc2ccccc2[N+](=O)[O-])s1
BT-549 breast
  TGI: 60.5 µM
CCRF-CEM leukemia
  TGI: > 100 µM
DU-145 prostate
  TGI: 78.8 µM
HCT-15 colon
  TGI: > 100 µM
HOP-62 NSCLC
  TGI: 90.9 µM
HOP-92 NSCLC
  TGI: > 100 µM
NCI-H460 lung
  TGI: > 100 µM
T-47D breast
  TGI: > 100 µM

## CCSC12CC3c4cccc5c4C(CN5C(=O)c4ccccc4)CC3(O1)N(C)C2=O (stereo not given)
BT-549 breast
  TGI: 80.7 µM
CCRF-CEM leukemia
  TGI: > 100 µM
DU-145 prostate
  TGI: > 100 µM
HCT-15 colon
  TGI: > 100 µM
HOP-92 NSCLC
  TGI: 71.9 µM
NCI-H460 lung
  TGI: > 100 µM
SK-MEL-2 melanoma
  TGI: 89.5 µM
SK-MEL-5 melanoma
  TGI: 28.9 µM
T-47D breast
  TGI: > 100 µM

## Cc1cc(C)nc(NS(=O)(=O)c2ccc(NC(=O)c3cccc4c(N)c5ccccc5nc34)cc2)n1
CCRF-CEM leukemia
  TGI: > 100 µM
HCT-15 colon
  TGI: > 100 µM
HOP-62 NSCLC
  TGI: > 100 µM
NCI-H460 lung
  TGI: > 100 µM
SK-MEL-2 melanoma
  TGI: > 100 µM
SK-MEL-5 melanoma
  TGI: > 100 µM

## CCOC(=O)c1c(NC(=O)c2ccc(Br)cc2)sc2c1CCCC2
BT-549 breast
  TGI: > 100 µM
CCRF-CEM leukemia
  TGI: > 100 µM
DU-145 prostate
  TGI: > 100 µM
HOP-62 NSCLC
  TGI: > 100 µM
NCI-H460 lung
  TGI: 20 µM
SK-MEL-2 melanoma
  TGI: > 100 µM
SK-MEL-5 melanoma
  TGI: > 100 µM
T-47D breast
  TGI: > 100 µM

## CCCOP(=S)(N1CC1)N1CC1
CCRF-CEM leukemia
  TGI: > 100 µM
HCT-15 colon
  TGI: > 100 µM
HOP-62 NSCLC
  TGI: > 100 µM
HOP-92 NSCLC
  TGI: > 100 µM
NCI-H460 lung
  TGI: > 100 µM
SK-MEL-2 melanoma
  TGI: > 100 µM
SK-MEL-5 melanoma
  TGI: > 100 µM

## COc1nc(C)nc2c1ncn2Cc1ccccc1
CCRF-CEM leukemia
  TGI: > 100 µM
DU-145 prostate
  TGI: > 100 µM
HCT-15 colon
  TGI: > 100 µM
HOP-62 NSCLC
  TGI: > 100 µM
HOP-92 NSCLC
  TGI: 53.9 µM
NCI-H460 lung
  TGI: > 100 µM
SK-MEL-5 melanoma
  TGI: > 100 µM
T-47D breast
  TGI: > 100 µM

## Cc1cc(Cl)ccc1NC(=O)C(=O)Cc1occc(=O)c1O
CCRF-CEM leukemia
  TGI: > 100 µM
HCT-15 colon
  TGI: > 100 µM
HOP-62 NSCLC
  TGI: > 100 µM
HOP-92 NSCLC
  TGI: > 100 µM
NCI-H460 lung
  TGI: > 100 µM
SK-MEL-2 melanoma
  TGI: > 100 µM
SK-MEL-5 melanoma
  TGI: > 100 µM

## CC[C@H](C)[C@H]1NC(=O)[C@@H](NC(=O)[C@@H](CC(C)C)N(C)C(=O)C2CCCN2C(=O)[C@H](C)O)[C@@H](C)OC(=O)[C@H](Cc2ccccc2)N(C)C(=O)[C@@H]2CCCN2C(=O)[C@H](CC(C)C)NC(=O)[C@@H](C)C(=O)[C@H](C(C)C)OC(=O)C[C@@H]1O (stereo not given in full)
BT-549 breast
  TGI: < 0.00625 µM
CCRF-CEM leukemia
  TGI: > 62.5 µM
HCT-15 colon
  TGI: 0.556 µM
HOP-62 NSCLC
  TGI: 0.0639 µM
NCI-H460 lung
  TGI: < 0.00625 µM
SK-MEL-2 melanoma
  TGI: 0.0954 µM

## N#CCN(Cc1ccccc1)[C@@H]1CCC[C@]1(O)C#Cc1ccc2c(c1)OCO2
CCRF-CEM leukemia
  TGI: 48.1 µM
DU-145 prostate
  TGI: > 100 µM
HCT-15 colon
  TGI: 66.7 µM
HOP-62 NSCLC
  TGI: 30.8 µM
HOP-92 NSCLC
  TGI: 27 µM
NCI-H460 lung
  TGI: 36.1 µM
SK-MEL-2 melanoma
  TGI: 33.1 µM
SK-MEL-5 melanoma
  TGI: 30 µM
T-47D breast
  TGI: 69.5 µM

## Cc1nc2nn(C)cc2c(=O)n1/N=C/c1ccccc1
CCRF-CEM leukemia
  TGI: > 100 µM
HCT-15 colon
  TGI: > 100 µM
HOP-62 NSCLC
  TGI: > 100 µM
NCI-H460 lung
  TGI: > 100 µM
SK-MEL-2 melanoma
  TGI: > 100 µM
SK-MEL-5 melanoma
  TGI: > 100 µM

## COc1ccc(/C=C(\Cl)c2ccc(OC)cc2)cc1
CCRF-CEM leukemia
  TGI: > 100 µM
HOP-62 NSCLC
  TGI: > 100 µM
HOP-92 NSCLC
  TGI: > 100 µM
NCI-H460 lung
  TGI: > 100 µM
SK-MEL-5 melanoma
  TGI: > 100 µM

## CN(CCO)/N=N/c1nc[nH]c1C(N)=O
CCRF-CEM leukemia
  TGI: > 100 µM
HCT-15 colon
  TGI: > 100 µM
HOP-62 NSCLC
  TGI: > 100 µM
HOP-92 NSCLC
  TGI: > 100 µM
NCI-H460 lung
  TGI: > 100 µM
SK-MEL-2 melanoma
  TGI: > 100 µM
SK-MEL-5 melanoma
  TGI: > 100 µM

## c1cc(C[S+]2CCCC2)oc1C[S+]1CCCC1
BT-549 breast
  TGI: > 100 µM
CCRF-CEM leukemia
  TGI: > 100 µM
DU-145 prostate
  TGI: > 100 µM
HCT-15 colon
  TGI: > 100 µM
HOP-62 NSCLC
  TGI: > 100 µM
NCI-H460 lung
  TGI: > 100 µM
SK-MEL-5 melanoma
  TGI: > 100 µM
T-47D breast
  TGI: > 100 µM

## Cc1ccc(-n2cc(-c3ccc(Cl)cc3)c3c2N=CN2NC(c4cccs4)=NC32)cc1 (stereo not given)
BT-549 breast
  TGI: 53.7 µM
CCRF-CEM leukemia
  TGI: 42.4 µM
DU-145 prostate
  TGI: > 100 µM
HCT-15 colon
  TGI: > 100 µM
HOP-62 NSCLC
  TGI: 35.2 µM
HOP-92 NSCLC
  TGI: 24 µM
NCI-H460 lung
  TGI: 19.2 µM
SK-MEL-2 melanoma
  TGI: 33 µM
SK-MEL-5 melanoma
  TGI: > 100 µM

## C=C(CC)C[C@@H]1C[C@]2(C(=O)OC)c3[nH]c4ccccc4c3CCN2C1=O
BT-549 breast
  TGI: 43.7 µM
DU-145 prostate
  TGI: > 100 µM
HCT-15 colon
  TGI: 34.5 µM
HOP-62 NSCLC
  TGI: 34 µM
HOP-92 NSCLC
  TGI: 38.1 µM
NCI-H460 lung
  TGI: 53.6 µM
SK-MEL-2 melanoma
  TGI: 33.1 µM
SK-MEL-5 melanoma
  TGI: 31.3 µM
T-47D breast
  TGI: > 100 µM

## O=c1oc2c(ccc3c(O)cccc32)c2c1CCCC2
BT-549 breast
  TGI: 73.6 µM
CCRF-CEM leukemia
  TGI: > 100 µM
DU-145 prostate
  TGI: > 100 µM
HOP-62 NSCLC
  TGI: 48.4 µM
HOP-92 NSCLC
  TGI: 50.1 µM
NCI-H460 lung
  TGI: > 100 µM
SK-MEL-2 melanoma
  TGI: > 100 µM
SK-MEL-5 melanoma
  TGI: > 100 µM
T-47D breast
  TGI: > 100 µM

## COc1nc(OC)nc(Sc2ccc(Sc3ccc(Sc4nc(OC)nc(OC)n4)cc3)cc2)n1
CCRF-CEM leukemia
  TGI: > 100 µM
HCT-15 colon
  TGI: > 100 µM
HOP-92 NSCLC
  TGI: > 100 µM
NCI-H460 lung
  TGI: > 100 µM
SK-MEL-2 melanoma
  TGI: > 100 µM
SK-MEL-5 melanoma
  TGI: > 100 µM

## COC(=O)[C@@H]1[C@H](O)CC[C@H]2[C@@]1(C)CC[C@@H](C)[C@]2(COC(C)=O)CC(=O)c1ccoc1
BT-549 breast
  TGI: > 50 µM
CCRF-CEM leukemia
  TGI: > 50 µM
DU-145 prostate
  TGI: > 50 µM
HCT-15 colon
  TGI: > 50 µM
HOP-92 NSCLC
  TGI: > 50 µM
NCI-H460 lung
  TGI: > 50 µM
SK-MEL-2 melanoma
  TGI: > 50 µM
SK-MEL-5 melanoma
  TGI: > 50 µM
T-47D breast
  TGI: > 50 µM

## O=C1Cc2ccccc2CCc2ccsc21
CCRF-CEM leukemia
  TGI: > 100 µM
HCT-15 colon
  TGI: > 100 µM
HOP-92 NSCLC
  TGI: > 100 µM
NCI-H460 lung
  TGI: > 100 µM
SK-MEL-2 melanoma
  TGI: > 100 µM
SK-MEL-5 melanoma
  TGI: > 100 µM

## Cc1ccccc1NC(=O)CSc1nnc(Cc2ccccc2)o1
CCRF-CEM leukemia
  TGI: > 100 µM
HCT-15 colon
  TGI: > 100 µM
HOP-62 NSCLC
  TGI: > 100 µM
NCI-H460 lung
  TGI: > 100 µM
SK-MEL-2 melanoma
  TGI: > 100 µM
SK-MEL-5 melanoma
  TGI: > 100 µM

## CCc1n[nH]c(=S)n1/N=C\c1ccc(-c2ccccc2[N+](=O)[O-])o1
BT-549 breast
  TGI: > 100 µM
CCRF-CEM leukemia
  TGI: > 100 µM
DU-145 prostate
  TGI: > 100 µM
HCT-15 colon
  TGI: > 100 µM
HOP-62 NSCLC
  TGI: > 100 µM
HOP-92 NSCLC
  TGI: > 100 µM
SK-MEL-2 melanoma
  TGI: > 100 µM
SK-MEL-5 melanoma
  TGI: 33.7 µM
T-47D breast
  TGI: > 100 µM
